Assay results published in patent US12516026B2, “Cabozantinib compositions and methods of use” (priority 2023, dated 2026).

Experiments:
[1] = Example 25: impurity profile of cabozantinib lauryl sulfate lots stored at 40° C. and 75% relative humidity; format: physicochemical; conditions: 40° C./75% RH
[2] = single dose, healthy human subjects, cited from earlier work

Compound | Related Substance 1 Int2-Imp1 ([1]; 0 months) | Related Substance 1 Int3-Imp5 ([1]; 0 months) | Related Substance 1 Total imp. ([1]; 0 months) | Related Substance 1 Unidentified imp ([1]; 0 months) | Related Substance 2 Int1 ([1]; 0 months) | Water Content ([1]; 0 months) | Related Substance 1 Int2-Imp1 ([1]; 1 month) | Related Substance 1 Int3-Imp5 ([1]; 1 month) | Related Substance 1 Total imp. ([1]; 1 month) | Related Substance 2 Int1 ([1]; 1 month) | Related Substance 1 Int2-Imp1 ([1]; 3 months) | Related Substance 1 Int3-Imp5 ([1]; 3 months) | Related Substance 1 Total imp. ([1]; 3 months) | Related Substance 2 Int1 ([1]; 3 months) | Water Content ([1]; 3 months) | also measured
CCCCCCCCCCCCOS(=O)(=O)O.COc1cc2nccc(Oc3ccc(NC(=O)C4(C(=O)Nc5ccc(F)cc5)CC4)cc3)c2cc1OC [Example 25C, cabozantinib lauryl sulfate] | 0.10% | 0.05% | 0.24% | <0.05% | 5.22 ppm | 0.31% | 0.11% | <0.05% | 0.24% | 5.98 ppm | 0.13% | <0.05% | 0.29% | 6.99 ppm | 0.05% | Related Substance 1 Int3-Imp7 ([1]; 0 months): <0.05%; Related Substance 1 Int3-Imp7 ([1]; 1 month): 0.05%; Related Substance 1 Unidentified imp ([1]; 1 month): <0.05%; Water Content ([1]; 1 month): 0.29%; Related Substance 1 Int2-Imp1 ([1]; 2 months): 0.13%; Related Substance 1 Int3-Imp5 ([1]; 2 months): <0.05%; Related Substance 1 Int3-Imp7 ([1]; 2 months): <0.05%; Related Substance 1 Total imp. ([1]; 2 months): 0.21%; Related Substance 2 Int1 ([1]; 2 months): 6.07 ppm; Water Content ([1]; 2 months): 0.068%; Related Substance 1 Int3-Imp7 ([1]; 3 months): <0.05%; Related Substance 1 Unidentified imp ([1]; 3 months): <0.05%
CCCCCCCCCCCCOS(=O)(=O)O.COc1cc2nccc(Oc3ccc(NC(=O)C4(C(=O)Nc5ccc(F)cc5)CC4)cc3)c2cc1OC [Example 25B, cabozantinib lauryl sulfate] | 0.12% | <0.05% | 0.20% | 0.06% | 2.77 ppm | 0.19% | 0.07% | <0.05% | 0.09% | 6.28 ppm | 0.06% | <0.05% | 0.11% | 6.50 ppm | 0.10% | Related Substance 1 Int3-Imp2 ([1]; 3 months): <0.05%; Related Substance 1 Int2-Imp1 ([1]; 6 months): 0.10%; Related Substance 1 Int3-Imp5 ([1]; 6 months): <0.05%; Related Substance 1 Int3-Imp7 ([1]; 6 months): <0.05%; Related Substance 1 Total imp. ([1]; 6 months): 0.10%; Related Substance 1 Unidentified imp ([1]; 6 months): <0.05%; Related Substance 2 Int1 ([1]; 6 months): 7.34 ppm
^14C-cabozantinib | – | – | – | – | – | – | – | – | – | – | – | – | – | – | – | radioactivity recovered in feces ([2]; 48-day collection period): approximately 54%; radioactivity recovered in urine ([2]; 48-day collection period): ~27%; total administered radioactivity recovered ([2]; within a 48-day collection period): approximately 81%
